# Data published in patent US9446127B2, “Compositions including androgen receptor degradation (ARD) enhancers and methods of prophylactic or therapeutic treatment of skin disorders and hair loss” (AndroScience Corporation, priority 2007, dated 2016).
# “And” between values parts separate entries of the source, which are not always exact repeats. Equal entries are not always repeated.
# Assays:
# [1] = molecular target: T1, androgen receptor (AR) (Homo sapiens, UniProt P10275, T878A); assay: Specificity Western blot in LNCaP cell lysates, AR; format: cell-based; details: 1 or 5 micromolar, 24 hours, presence or absence of DHT
# T1 construct: endogenous in cells; host or cells: LNCaP
# T1 sequence (P10275 1-920 T878A): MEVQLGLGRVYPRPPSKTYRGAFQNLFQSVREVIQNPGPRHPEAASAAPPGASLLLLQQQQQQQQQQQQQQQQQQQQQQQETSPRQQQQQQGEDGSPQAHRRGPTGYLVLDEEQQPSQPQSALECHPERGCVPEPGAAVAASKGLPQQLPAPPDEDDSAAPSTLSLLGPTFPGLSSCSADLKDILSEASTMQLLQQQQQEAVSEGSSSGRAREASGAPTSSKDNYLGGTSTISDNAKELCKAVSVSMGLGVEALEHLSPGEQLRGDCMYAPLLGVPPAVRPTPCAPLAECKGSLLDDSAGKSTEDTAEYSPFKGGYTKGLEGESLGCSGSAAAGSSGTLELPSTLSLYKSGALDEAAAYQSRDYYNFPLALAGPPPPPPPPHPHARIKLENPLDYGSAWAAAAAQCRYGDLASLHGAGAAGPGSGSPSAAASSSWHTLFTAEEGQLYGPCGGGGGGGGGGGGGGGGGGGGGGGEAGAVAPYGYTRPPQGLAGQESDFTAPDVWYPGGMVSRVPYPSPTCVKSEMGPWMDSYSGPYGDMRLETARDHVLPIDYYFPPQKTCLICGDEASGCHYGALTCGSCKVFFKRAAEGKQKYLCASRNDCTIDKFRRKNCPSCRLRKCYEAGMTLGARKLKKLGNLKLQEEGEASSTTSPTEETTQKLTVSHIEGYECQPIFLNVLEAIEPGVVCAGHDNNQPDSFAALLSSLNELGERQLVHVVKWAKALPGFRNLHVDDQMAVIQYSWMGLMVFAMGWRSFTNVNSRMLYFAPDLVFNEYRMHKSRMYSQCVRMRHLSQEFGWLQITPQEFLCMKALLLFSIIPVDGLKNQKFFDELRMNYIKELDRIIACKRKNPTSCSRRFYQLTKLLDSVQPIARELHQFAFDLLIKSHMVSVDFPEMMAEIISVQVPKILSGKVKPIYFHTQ
# Protocol: (§1) Human prostate cancer LNCaP cells and T47D cells were plated at a density of 7×10^5 cells per 60 millimeter tissue culture dish in […] medium containing 10% FBS. The medium was changed to RPMI or DME medium containing 10% charcoal-stripped serum 24 hours later to deplete cellular androgens or estrogens. After another 24 hours, treatment with the test compounds began. The test dose of ASC-J9 was 1, and 5 and micromolar. LNCap cells also received dihydrotestosterone (DHT) (3 nanomolar). Control cells received a corresponding amount of the vehicle, dimethylsulfoxide (DMSO) (<0.04%) for an equivalent exposure time. Cells were incubated with ASC-J9 for 24 hours, and were lysed in 250 microliters of 1×SDS/PAGE loading buffer. Approximately 40 micrograms of total cellular protein was loaded in each lane of a pre-cast gel (NuPAGE, Invitrogen). Protein separation and transfer were performed following the manufacturer's instructions.
# (§2) For the LNCaP cell lysates, androgen receptor (AR) protein was visualized by incubating the resultant membranes with an anti-AR antibody (BD-PharMingen), followed by chemiluminescence detection (ECL Plus, Amersham). […] The resultant protein signals were quantified using densitometry and NIH ImageJ software.
# [2] = tested on: ER beta, PPARα, β or γ, RXRα, hsp70, actin; assay: Specificity Western blot in LNCaP cell lysates, other nuclear receptors or proteins; format: cell-based, human; details: 1 or 5 micromolar, 24 hours, presence or absence of DHT
# Protocol: as §1, §2
# [3] = tested on: PPARγ, PPARβ, RXRα, ERα and Erβ, ERK, HSP70 and actin; assay: Specificity Western blot in T47D cell lysates, other receptor proteins; format: cell-based, human; details: T47D cell lysates (FIG. 6)
# Protocol: as §1
# [4] = tested on: acne-affected skin; assay: Topical treatment of acne in human volunteers; format: in vivo
# Protocol: In this example, human subjects were successfully treated for acne by topical administration of a cream containing the compound ASC-J15 or ASC-J9, which were shown in the previous examples to ameliorate the effects of the androgen receptor-activated pathway, specifically by inducing degradation of the androgen receptor. A basic carrier formulation was prepared by mixing two solutions: (1) a water-based solution containing aristoflex avc, Osmocide, Tween 20, and water; and (2) an oil-based solution containing isopropyl myristate, coconut dienthanolamine, ethylparaben, isobutylparaben, methylparaben, and propylparaben. […]
# Male and female human volunteers ranging in age from 15 years to 52 years were treated by topical application of the test compounds to the acne-affected skin. Subjects were asked to apply the cream to the acne-affected areas twice a day (once in the morning and once in the evening). […] The results are given in Table 2, and a representative result (photo pictures) from one volunteer is depicted in FIG. 14. FIG. 14A depicts the volunteer's forehead and FIG. 14B depicts the volunteer's back.
structure (smiles),measurement,setting,value
"COc1ccc(C=CC(=O)C=C(O)C=Cc2ccc(OC)c(OC)c2)cc1OC [ASC-J9, 5-hydroxy-1,7-bis(3,4-dimethoxyphenyl)-1,4,6-heptatrien-3-one]",cellular concentration of AR,[1],significantly decreased
same,other tested nuclear receptors or proteins,[2],did not substantially affect
same,expression of other receptor proteins,[3],not affected
same,Recovery Time,"[4]; topical cream 1 micromolar, one line per subject (age, sex, frequency in Table 2)",2 weeks and 1 week weeks
same,Recovery Time,"[4]; topical cream 2.5 micromolar, twice a day, subject 24",1 week
same,skin condition of acne-affected male volunteers (photographs),"[4]; topical, 2.5 micromolar forehead (FIG. 14A), 625 μM back (FIG. 14B)",visible improvement to skin condition
